# Laboratory results reported in patent publication EP0472573B1, “HERBICIDE RESISTANT MAIZE” (ZENECA LIMITED, priority 1989, dated 1990).
# Test system: M1 seed of maize inbred line UE95 (sensitive plants)
# Test: Pre-emergence screening of M1 seed
# Type: in vivo, Zea mays
# Description: M1 seed was sown, 100 seeds per tray, in WCB growing medium (low organic matter, 45% loam, 55% grit) and sprayed to 'run-off' using a track sprayer, with a solution of imazethapyr (PURSUIT) at a concentration calculated to be the equivalent of 250 g/ha of active ingredient . The seeds were covered with 0.5 inch of WCB and grown in the glasshouse at 25°C.
# The chosen application rate was such that germination was close to 100%, but subsequently all susceptible plants were severely affected. However, after about two weeks, the initial effect of the herbicide became apparent: thin striped leaves and reduced height of only about 20% of the height of the control plants. […] Unsprayed UE95 plants were always grown in parallel with each screen as a control as it was already known that normal and M1 seedlings of UE95 are almost indistinguishable when germinated and grown to maturity without spraying.
compound,measurement,setting,value
"CCc1cnc(C2=NC(=O)C(C)(C(C)C)N2)c(C(=O)O)c1 (stereo not drawn) [Imazethapyr, 5-ethyl-2-(5-iso-propyl-5-methyl-4-oxo-2-imidazolin-2-yl) nicotinic acid]",germination,"250 g/ha of active ingredient, pre-emergence, glasshouse at 25°C",~100%
same,effect on sensitive plants,"250 g/ha, after three to four weeks",almost all the sensitive plants were completely dead
same,reduced height,"250 g/ha, susceptible plants, after about two weeks",about 20 % of the height of the control plants
